Assay results published in article PMC11855827, “High-Throughput Screening of Five Compound Libraries for Anthelmintic Activity and Toxicity Leads to the Discovery of Two Flavonoid Compounds” (International Journal of Molecular Sciences, 2025).
Several values for one entry are separate records, joined by “and”; a condition that tells them apart may be missing. Identical values can stand only once. Like-named read-outs stand apart in the source and are kept apart here.

System: C. elegans
[1] = Table S2, C. elegans SS assay, 110 μM, averages of 4 data points

Row | Molecule | Percentage of motility inhibition 0 h [1] | Percentage of motility inhibition 24 h [1] | Percentage of motility inhibition 0 h (110 μM) | Percentage of motility inhibition 24 h (110 µM)
1 | Diniconazole | 19% | 5% |  | 
2 | C/C=C/C=C/C=C\CC/C=C/C(=O)NCC(C)(C)O [Hydroxy‐α‐sanshool] | 3% | 0% |  | 
3 | CC(C)=CCC[C@](C)(O)[C@H]1CC[C@]2(C)[C@@H]1[C@H](O)C[C@@H]1[C@@]3(C)C[C@@H](O)[C@H](O[C@@H]4O[C@H](CO)[C@@H](O)[C@H](O)[C@H]4O[C@@H]4O[C@H](CO)[C@@H](O)[C@H](O)[C@H]4O)C(C)(C)[C@@H]3CC[C@]12C [Gypenoside L] | 22% | 15% |  | 
4 | COc1cc2c(cc1OC)C(Cc1ccc(O)cc1)N(C)CC2 (centres unmarked) [Armepavine] | 0% | 12% |  | 
5 | COC1=CC(=O)OC(/C=C/c2ccccc2)C1 (single isomer, unassigned; (+)) [(+)-Kavain] | 5% | 13% |  | 
6 | Oc1ccc([C@H]2Oc3cc(O)cc(O)c3C[C@H]2O)cc1 [(‐)‐Epiafzelechin] | 13% | 42% |  | 
7 | COc1ccc2c3ccnc4ccc(=O)n(c2c1)c43 [9‐Methoxycanthin‐6‐one] | 0% | 22% |  | 
8 | O=C1C=C2C=C[C@@H]3C[C@@]2(O1)[C@H]1CCCCN31 [(-)-Securinine] |  | 5% |  | 
9 | C=C(C)[C@@H]1CC[C@]2(C(=O)O)CC[C@]3(C)[C@H](CC[C@@H]4[C@@]5(C)CC[C@H](O[C@@H]6OC[C@H](O)[C@H](O)[C@H]6O[C@@H]6O[C@@H](C)[C@H](O)[C@@H](O)[C@H]6O)[C@@](C)(CO)[C@@H]5CC[C@]43C)[C@@H]12 [Pulchinenoside A] | 15% | 7% |  | 
10 | C[C@@H]1O[C@@H](O[C@H]2[C@H](O[C@H]3[C@H](O[C@H]4CC[C@]5(C)[C@H]6CC=C7[C@@H]8CC(C)(C)CC[C@]8(C(=O)O)CC[C@@]7(C)[C@]6(C)CC[C@H]5C4(C)C)OC[C@H](O)[C@@H]3O)O[C@H](CO)[C@@H](O)[C@@H]2O)[C@H](O)[C@H](O)[C@H]1O [Raddeanin A] | 4% | 6% |  | 
11 | C[C@H]1O[C@@H](O[C@H]2CC[C@@]3(C)[C@@H](CC[C@]4(C)[C@@H]3C=CC3=C5CC(C)(C)CC[C@]5(CO)[C@@H](O)C[C@]34C)[C@]2(C)CO)[C@H](O[C@@H]2O[C@H](CO)[C@@H](O)[C@H](O)[C@H]2O)[C@@H](O[C@@H]2O[C@H](CO)[C@@H](O)[C@H](O)[C@H]2O)[C@H]1O [Buddlejasaponin IVb] | 0% | 4% |  | 
12 | C[C@H]1CC[C@H]2[C@H](C)[C@@H]3CC[C@@H]4[C@@H](C[C@H]5[C@H]4C[C@@H](O)[C@H]4C[C@@H](O)CC[C@@]45C)[C@@H]3CN2C1 [Hupehenine] | 0% | 10% |  | 
13 | CCN(CC)C(=O)N1CCN(C)CC1.O=C(O)CC(O)(CC(=O)O)C(=O)O [Diethylcarbamazine (citrate)] | 13% | 17% |  | 
14 | CC12CCC(CC1=O)C2(C)C (stereo not drawn) [(+)‐Camphor] | 31% | 1% |  | 
15 | O=C(O)c1cc(=O)c2ccccc2[nH]1 [Kynurenic acid] | 17% | 0% |  | 
16 | CC(=O)NO [Acetohydroxamic acid] | 13% | 4% |  | 
17 | C=CC/C(=N/OS(=O)(=O)[O-])S[C@@H]1OC(CO)[C@@H](O)C(O)C1O.[K+] (some centres unmarked) [Sinigrin] | 0% | 0% |  | 
18 | COc1cc2c(cc1OC)C1Cc3ccc4c(c3CN1CC2)OCO4 (centres unmarked) [Tetrahydroepiberberine] | 10% | 3% |  | 
19 | CN(Cc1ccc(C(C)(C)C)cc1)Cc1cccc2ccccc12.Cl [Butenafine (Hydrochloride)] | 43% | 0% |  | 
20 | C[C@@H]1NC(=O)N[C@@H]1CCCCCC(=O)O [D‐Desthiobiotin] | 18% | 4% |  | 
21 | Valepotriate | 0% | 7% |  | 
22 | Enfuvirtide |  |  | 36% | 30%
23 | C[C@@H]1O[C@@H](O[C@H]2C(=O)c3c(O)cc(O)cc3O[C@H]2c2ccc(O)c(O)c2)[C@H](O)[C@H](O)[C@H]1O [Neoisoastilbin] | 0% | 0% |  | 
24 | CNc1ccccc1C(=O)OC [Methyl N‐methylanthranilate] | 30% | 4% |  | 

Row | Molecule | Percentage of motility inhibition 0 h [1] | Percentage of motility inhibition 24 h [1] | Percentage of motility inhibition 0 h (110 μM) | Percentage of motility inhibition 24 h (110 µM)
25 | Cc1nnc(C(=O)NC(C)(C)c2nc(C(=O)NCc3ccc(F)cc3)c([O-])c(=O)n2C)o1.[K+] [Raltegravir (potassium salt)] | 3% | 4% |  | 
26 | COC[C@@]12CC[C@H](OC)[C@]34C([C@H]([C@H](OC)[C@H]13)[C@]1(O)[C@H]3[C@@H](OC(=O)c5ccccc5)[C@](O)(C[C@H]34)[C@@H](OC)[C@@H]1O)N(C)C2 [Benzoylhypaconine] | 5% | 0% |  | 
27 | CCCN1C[C@H](C)[C@@H](O)[C@](C)(O)[C@@H](CC)OC(=O)[C@H](C)[C@@H](O[C@H]2C[C@@](C)(OC)[C@@H](O)[C@H](C)O2)[C@H](C)[C@@H](O[C@@H]2O[C@H](C)C[C@H](N(C)C)[C@H]2O)[C@](C)(O)C[C@H]1C [Gamithromycin] | 37% | 44% |  | 
28 | O=C([O-])c1ccc[n+]([C@@H]2O[C@H](CO)[C@@H](O)[C@H]2O)c1 [Nicotinic acid riboside] | 5% | 0% |  | 
29 | CC(C)=CC1CC(O)(C2CCC3(C)C2CCC2C4(C=O)CCC(OC5OCC(O)C(OC6OCC(O)C(O)C6O)C5OC5OC(C)C(O)C(O)C5O)C(C)(C)C4CCC23C)C(O)O1 (centres unmarked) [Gypenoside A] | 0% | 0% |  | 
30 | Cl.Clc1ccc(Cn2c(CN3CCCC3)nc3ccccc32)cc1 [Clemizole (hydrochloride)] | 25% | 69% |  | 
31 | Cl.N=C(N)NCCC[C@H](N)C(=O)O [L-Arginine (hydrochloride)] | 20% | 17% |  | 
32 | CC1(C)CCC2(C(=O)O)C(O)CC3(C)C(=CCC4C5(C)CC(O)C(O)C(C)(CO)C5CCC43C)C2C1 (centres unmarked) [Polygalacic acid] | 3% | 0% |  | 
33 | CCn1cc(C(=O)O)c(=O)c2cc(F)c(N3CCNC(C)C3)c(F)c21.Cl (centres unmarked) [Lomefloxacin (hydrochloride)] | 39% | 0% |  | 
34 | C[C@@H]1O[C@@H](O[C@H]2[C@H](Oc3cc(O)c4c(c3)O[C@H](c3ccc(O)c(O)c3)CC4=O)O[C@H](CO)[C@@H](O)[C@@H]2O)[C@H](O)[C@H](O)[C@H]1O [Neoeriocitrin] | 6% | 13% |  | 
35 | Cc1ncc(C[n+]2csc(CCO)c2C)c(N)n1.Cl.[Cl-] [Thiamine (hydrochloride)] | 2% | 13% |  | 
36 | CC1(C)[C@@H](O)CC[C@]2(C)[C@H]3CC=C4[C@@H]5C[C@@]6(C)C[C@H](OC6=O)[C@]5(C)CC[C@@]4(C)[C@]3(C)CC[C@@H]12 [Wilforlide A] | 7% | 3% |  | 
37 | O=c1c(-c2ccc(O)cc2)coc2cc(O[C@@H]3O[C@H](CO)[C@@H](O)[C@H](O)[C@H]3O)ccc12 [Daidzin] | 47% and 26% |  |  | 
38 | COc1cc(/C=C/C(=O)N2CCC=CC2=O)cc(OC)c1OC [Piperlongumine] | 0% | 0% |  | 
39 | COc1cc2c(cc1O)C1Cc3ccc(OC)c(O)c3C[N+]1(C)CC2.[Cl-] (centres unmarked) [Cyclanoline (chloride)] | 7% | 12% |  | 
40 | Cl.Oc1ccc(CC2NCCc3cc(O)c(O)cc32)cc1 (centres unmarked) [Higenamine (hydrochloride)] | 0% | 7% |  | 
41 | Cl.O=C(c1ccc(OCCN2CCCCC2)cc1)c1c(-c2ccc(O)cc2)sc2cc(O)ccc12 [Raloxifene (hydrochloride)] | 32% | 0% |  | 
42 | CC(=O)O[C@H]1[C@H](O[C@H]2CC[C@]34C[C@]35CC[C@]3(C)[C@@H]([C@@]6(C)CC[C@@H](C(C)(C)O)O6)[C@@H](O)C[C@@]3(C)[C@@H]5C[C@H](O[C@@H]3O[C@H](CO)[C@@H](O)[C@H](O)[C@H]3O)[C@H]4C2(C)C)OC[C@@H](OC(C)=O)[C@@H]1O [Isoastragaloside I] | 12% | 59% |  | 
43 | C=C(C)[C@H](CC=C(C)C)Cc1c(O)cc(OC)c2c1O[C@H](c1ccc(O)cc1O)[C@@H](O)C2=O [Kushenol I] | 0% | 8% |  | 
44 | Inulin | 4% | 17% |  | 
45 | O=c1cc(-c2ccc(O)cc2)oc2c([C@@H]3O[C@H](CO)[C@@H](O)[C@H](O)[C@H]3O)c(O)c([C@@H]3O[C@H](CO)[C@@H](O)[C@H](O)[C@H]3O)c(O)c12 [Vicenin 2] | 0% | 3% |  | 
46 | CN[C@H]1[C@H](O)[C@H](O[C@@H]2[C@@H](O)[C@H](O[C@H]3O[C@H](C(C)O)[C@@H](O)[C@H](O)[C@H]3N)[C@@H](N)C[C@H]2N)OC[C@@]1(C)O.O=S(=O)(O)O.O=S(=O)(O)O (some centres unmarked) [G‐418 (disulfate)] | 26% | 11% |  | 
47 | CCCC(C(=O)O)c1c(C)nc2ccc(Cl)cc2c1-c1ccccc1 (centres unmarked) [HIV‐1 integrase inhibitor 2] | 14% | 13% |  | 
